The values below come from patent EP0476944B1, “Aromatase inhibiting 4(5)-imidazoles” (ORION-YHTYMÄ OY, priority 1990, dated 1992).

This data set in a line: Acute toxicity, oral, in mice. Conditions: mouse, in vivo; oral administration; young adult female mice of NMRI-strain; read-out: Acute toxicity, LD₅₀. How it is done:
Acute toxicity, LD₅₀, was determined by using young adult female mice of NMRI-strain. The administration was oral. The LD₅₀-value for 4-[2,4-bis(4-fluorophenyl)butyl]-1H-imidazole was 400 mg/kg.

`Fc1ccc(CCC(Cc2c[nH]cn2)c2ccc(F)cc2)cc1` (stereo not shown) [Compound 3, 4-[2,4-bis(4-fluorophenyl)butyl]-1H-imidazole]: the LD50 turned out to be 400 mg/kg.
